{"source": "patent US8163691B2", "about": "“Compositions and methods for identifying agents which modulate PTEN function and PI-3 kinase pathways” (Indiana University Research & Research Corporation, priority 2000, dated 2012)", "key": {"[1]": {"test_system": "U87MG cells", "assay": "Orthotopic (intracranial) U87MG brain tumor model in nude mice", "assay_type": "in vivo, mouse", "settings": "examined on day 42; DMSO controls 4/5 by day 25", "experimental": "To determine whether PTEN exerts control over angiogenesis and/or the growth of glial tumors, an orthotopic brain tumor model was developed in which PTEN-deficient tumor cells were genetically manipulated in vitro and then stereotactically injected into the frontal cerebral cortex of nude mice. The U87MG cell line employed in these studies is derived from a patient diagnosed with glioblastoma multiforme, a highly malignant and uniformly fatal brain tumor. This tumor and other human glioblastomas and glioblastoma cell lines contain a mutation in both PTEN alleles (U87MG cells have a homozygous mutation in PTEN resulting in a null genotype). We also examined the effect of LY294002 on tumor growth and incidence of brain tumor in a nude mouse model. In a previous study, in vivo activity of LY294002 against an ovarian carcinoma was observed. […] In other words, the carcinoma was not assessed in its natural milieu. Hu et al., Clin. Can. Res. 6:880). […] In control mice treated with DMSO, 4/5 had grossly visible and/or histologically confirmed brain tumors by H & E analysis by day 25 after implantation, whereas in 0/5 mice treated with LY294002 had grossly detectable or histologic evidence of intracranial tumor when examined on day 42."}, "[2]": {"test_system": "U87MG cells", "assay": "Microvessel density (CD31 positive microvessels) in subcutaneous U87MG tumor tissue", "assay_type": "in vivo, mouse", "settings": "LY294002 100 mg/kg/dose x 2 weeks i.p.; controls (DMSO) 50±6", "experimental": "Microvessel density (MVD) was determined for each brain tumor as described in Example I by CD31 staining, performed on cryostat sections (7 μm), fixed in acetone, blocked in 1% goat serum and stained with anti-CD31 antibody (Pharmingen, #01951D). Antibody staining was visualized with peroxidase-conjugated anti-mouse antibody and counter stained with hematoxylin. A negative control was performed on each tumor tissue stained with mouse IgG. Two sections from each tumor were scanned under low power magnification (40×) to identify areas of highest CD31 positive vessel density (Weidner et al. 1991), followed by digitization of 5 fields from this area. The digitized images representing one 100× field were counted for the number of CD31 positive vascular elements. Data was collected independently by two researchers in a blind study. The average number of microvessels per digitized 100× field was determined for 5 tumors per experimental group and analyzed by Student's t-test. […] Tumor volumes were recorded daily (FIG. 15). […] Microvessel density was assessed from multiple digitized images of CD31-stained tumor tissue at 100× magnification (3 fields were evaluated per tumor) and counted blindly for the number of CD31 positive microvessels per unit surface area as described (Weidner et al., (1991) N. Engl. J. Med. 324:1). […]"}, "[3]": {"assay": "Tolerability of treatment in tumor-bearing mice", "assay_type": "in vivo, mouse", "settings": "100 mg/kg daily i.p. in 100% DMSO for 2 weeks", "experimental": "LY294002 was administered at a dosage of 100 mg/kg delivered daily by intraperitoneal injection in a small volume of 100% DMSO for 2 weeks, beginning 2 days after tumor implantation. […] Control mice were injected with small volume ([…]) of 100% DMSO. Daily measurement of tumor volume was performed in 3 coordinates using calipers."}, "[4]": {"test_system": "U87MG cells", "assay": "Subcutaneous U87MG tumor growth in nude mice", "assay_type": "in vivo, mouse", "settings": "LY294002 100 mg/kg daily i.p.; control approximately 400 mm3", "experimental": "LY294002 was administered at a dosage of 100 mg/kg delivered daily by intraperitoneal injection in a small volume of 100% DMSO for 2 weeks, beginning 2 days after tumor implantation. […] Control mice were injected with small volume ([…]) of 100% DMSO. Daily measurement of tumor volume was performed in 3 coordinates using calipers. To determine whether PI-3 kinase exerts control over angiogenesis or the growth of glial tumors in vivo the orthotopic brain tumor model described in Example I was utilized. To assess the effect of LY294002 on angiogenesis, we treated mice with LY294002 (100 mg/kg/dose×2 weeks) or DMSO as negative control. Tumor volumes were recorded daily (FIG. 15). On day 14 we stained cryostat sections from subcutaneous tumors for CD31 (PECAM). CD31 is an endothelial marker used to measure the microvessel density of these tumors. Microvessel density was assessed from multiple digitized images of CD31-stained tumor tissue at 100× magnification (3 fields were evaluated per tumor) and counted blindly for the number of CD31 positive microvessels per unit surface area as described (Weidner et al., (1991) N. Engl. J. Med. 324:1). […] Importantly, microvessel determinations were performed on day 7 after implantation to compare angiogenic activity of tumors of similar size. […]"}, "[5]": {"test_system": "Glioblastoma cells engineered to stably express wild-type PTEN", "assay": "MTT viable cell assay, chemosensitivity of glioblastoma cells stably expressing wild-type PTEN", "assay_type": "cell-based, human", "experimental": "(§1) MTT assays. Cells were seeded (6000/well) into a 96 well plate. Twenty-four hours later the growth medium was changed to 1% serum and other reagents were added as described. Treatments proceeded for 24-72 h. At each time point the MTT assay was performed. MTT (10 ul of a 5 mg/ml stock solution dissolved in RPMI medium) is added to each well of cultures 4 hours before quantitation of viable cell number by measuring absorbance in each well at 650 nm with a microplate reader (Molecular Devises,) Agents added to cell LY294002 alone or in combination with etoposide. In addition, comparison was made between U87MG cells null for PTEN and reconstituted with PTEN protein. The absorbance of each well was measured at […] with a microplate reader."}, "[6]": {"test_system": "U87MG glioblastoma cells, null for PTEN", "assay": "MTT viable cell assay, chemosensitivity of parental PTEN-null U87MG glioblastoma cells", "assay_type": "cell-based, human", "experimental": "as §1"}, "[7]": {"test_system": "J774A.1 cells", "assay": "Fcγ receptor mediated phagocytosis of IgG sensitized sRBCs by J774A.1 cells (phagocytic index)", "assay_type": "cell-based, mouse"}, "[8]": {"test_system": "Cbl", "assay": "Tyrosine phosphorylation of Cbl after stimulation with sensitized sRBCs (Cbl IP, anti-phosphotyrosine immunoblot)", "assay_type": "cell-based, mouse"}}, "note": "“Also recorded” adds a separate entry of the source.", "data": [{"smiles": "O=c1cc(N2CCOCC2)oc2c(-c3ccccc3)cccc12", "note": "[LY294002]", "values": [{"measurement": "mice with grossly detectable or histologic evidence of intracranial tumor", "setting": "[1]", "value": "0/5"}, {"measurement": "microvessel density (MVD), CD31 positive microvessels", "setting": "[2]", "value": "22±5"}, {"measurement": "untoward effects in treated mice", "setting": "[3]", "value": "No untoward effects"}, {"measurement": "tumor size at the time of microvessel analysis", "setting": "[4]", "value": "approximately 35 mm3"}]}, {"smiles": "COc1cc([C@@H]2c3cc4c(cc3[C@@H](O[C@@H]3O[C@@H]5CO[C@@H](C)O[C@H]5[C@H](O)[C@H]3O)[C@H]3COC(=O)[C@H]23)OCO4)cc(OC)c1O", "note": "[etoposide]", "values": [{"measurement": "increase in sensitivity to etoposide, wild-type PTEN versus PTEN-null cells", "setting": "[5]; 0.047 μM versus 4.7 μM", "value": 100, "unit": "fold"}, {"measurement": "IC50", "setting": "[5]; Homo sapiens, cells stably expressing wild-type PTEN, read-out: etoposide required to achieve a 50% cell kill", "value": 47, "unit": "nM"}, {"measurement": "IC50", "setting": "[6]; Homo sapiens, U-87 MG, U87MG null for PTEN, or cells stably expressing catalytically inactive PTEN (R130M cells), read-out: etoposide required to achieve a 50% cell kill", "value": 4700, "unit": "nM"}, {"measurement": "cytotoxic activity of etoposide alone", "setting": "[6]; etoposide 1 uM", "value": "minimal cytotoxic activity"}]}, {"smiles": "Cc1ccc(-c2nn(C(C)(C)C)c3ncnc(N)c23)cc1", "note": "[PP1]", "values": [{"measurement": "inhibition of phagocytosis of IgG coated sRBCs (phagocytic index)", "setting": "[7]; PP1 10 μM, 1 h pretreatment, target to effector ratio 100:1", "value": "completely abrogated phagocytosis; also recorded: blocks the phagocytosis significantly"}, {"measurement": "dose dependence of inhibition of phagocytosis", "setting": "[7]; PP1 1, 5, 10 μM", "value": "dose dependent manner"}, {"measurement": "inhibition of phagocytosis of sensitized sRBCs", "setting": "[7]; preincubation of the cells, concentration not given", "value": "inhibit this response"}, {"measurement": "tyrosine phosphorylation of Cbl induced by sensitized sRBCs", "setting": "[8]; PP1 10 μM, stimulation with sRBCs 5 minutes", "value": "inhibited significantly; also recorded: abrogated"}, {"measurement": "dose dependence of the effect on Cbl tyrosine phosphorylation", "setting": "[8]; data not shown", "value": "dose dependent"}, {"measurement": "basal tyrosine phosphorylation levels of Cbl", "setting": "[8]; resting cells", "value": "suppressed the basal tyrosine phosphorylation levels of Cbl"}]}]}
